{"source": "patent US6355799B1", "about": "“Substituted benzene compounds, process for their preparation, and herbicidal and defoliant compositions containing them” (ISK Americas Incorporated, priority 1997, dated 2002)", "format_in_all_cases": "in vivo", "key": {"[1]": {"tested_on": "upland rice (Oryza sp., var. Tebonnet, RICE)", "assay": "Pre-emerge test, crop safety", "settings": "rated 14 days after application, 0 = no damage, 100 = complete death", "summary_of_the_method": "(§1)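 Fourteen days after spraying, crop and weed injury was graded visually from 0, no effect, to 100, every plant dead. Test substances were dissolved in acetone and applied at 15–1000 g ai/ha with a flat-fan nozzle. Application was either pre-emergence, one day after sowing, or post-emergence at the 2–3 leaf stage.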"}, "[2]": {"tested_on": "field corn (Zea mays L., var. Dekalb 535, CORN)", "assay": "Pre-emerge test, crop safety", "settings": "rated 14 days after application, 0 = no damage, 100 = complete death", "summary_of_the_method": "as §1"}, "[3]": {"tested_on": "redroot pigweed (Amaranthus retroflexus, AMARE)", "assay": "Pre-emerge test, greenhouse herbicide activity screening", "settings": "rated 14 days after application, 0 = no damage, 100 = complete death", "summary_of_the_method": "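Visual ratings on a 0-100 scale (0 no damage, 100 all plants dead) were taken at 14 days after treatment. Rates of 15-1000 g ai/ha in acetone, 187 l/ha, were sprayed onto soil one day after planting (pre-emerge) or onto 2-3 leaf plants with 0.25% v/v surfactant (post-emerge).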"}, "[4]": {"tested_on": "velvetleaf (Abutilon theophrasti, ABUTH)", "assay": "Pre-emerge test, greenhouse herbicide activity screening", "settings": "rated 14 days after application, 0 = no damage, 100 = complete death", "summary_of_the_method": "(§2)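 Compounds in acetone were track-sprayed at 15-1000 g ai/ha (187 l/ha) on sandy loam pots: pre-emerge one day after seeding, post-emerge at 2-3 leaf stage with 0.25% v/v non-ionic surfactant. Phytotoxicity was rated 14 days later on a 0 (no damage) to 100 (complete death) scale.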"}, "[5]": {"tested_on": "lambsquarters (Chenopodium album, CHEAL)", "assay": "Pre-emerge test, greenhouse herbicide activity screening", "settings": "rated 14 days after application, 0 = no damage, 100 = complete death", "summary_of_the_method": "as §2"}, "[6]": {"tested_on": "large crabgrass (Digitaria sanguinalis, DIGSA)", "assay": "Pre-emerge test, greenhouse herbicide activity screening", "settings": "rated 14 days after application, 0 = no damage, 100 = complete death", "summary_of_the_method": "as §2"}, "[7]": {"tested_on": "green foxtail (Setaria viridis, SETVI)", "assay": "Pre-emerge test, greenhouse herbicide activity screening", "settings": "rated 14 days after application, 0 = no damage, 100 = complete death", "summary_of_the_method": "as §2"}, "[8]": {"tested_on": "barnyardgrass (Echinochloa crus-galli, ECHCG)", "assay": "Pre-emerge test, greenhouse herbicide activity screening", "settings": "rated 14 days after application, 0 = no damage, 100 = complete death", "summary_of_the_method": "as §2"}, "[9]": {"tested_on": "johnsongrass (Sorghum halepense, SORHA)", "assay": "Pre-emerge test, greenhouse herbicide activity screening", "settings": "rated 14 days after application, 0 = no damage, 100 = complete death", "summary_of_the_method": "as §2"}, "[10]": {"tested_on": "common ragweed (Ambrosia artemisizfolia L., AMBEL)", "assay": "Pre-emerge test, greenhouse herbicide activity screening", "settings": "rated 14 days after application, 0 = no damage, 100 = complete death", "summary_of_the_method": "as §2"}, "[11]": {"tested_on": "sicklepod (Cassia obtusifolia, CASOB)", "assay": "Pre-emerge test, greenhouse herbicide activity screening", "settings": "rated 14 days after application, 0 = no damage, 100 = complete death", "summary_of_the_method": "as §2"}, "[12]": {"tested_on": "ivyleaf morningglory (Ipomoea hederacea, IPOHE)", "assay": "Pre-emerge test, greenhouse herbicide activity screening", "settings": "rated 14 days after application, 0 = no damage, 100 = complete death", "summary_of_the_method": "as §2"}, "[13]": {"tested_on": "upland rice (Oryza sp., var. Tebonnet, RICE)", "assay": "Post-emerge test, crop safety", "settings": "post-emerge, 14 days after application, rating scale 0-100", "summary_of_the_method": "as §2"}, "[14]": {"tested_on": "field corn (Zea mays L., var. Dekalb 535, CORN)", "assay": "Post-emerge test, crop safety", "settings": "post-emerge, 14 days after application, rating scale 0-100", "summary_of_the_method": "as §2"}, "[15]": {"tested_on": "velvetleaf (Abutilon theophrasti, ABUTH)", "assay": "Post-emerge test, greenhouse herbicide activity screening", "settings": "post-emerge, 14 days after application, rating scale 0-100", "summary_of_the_method": "(§3)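 Applied at 15–1000 g ai/ha from acetone in 187 l/ha spray volume. Post-emergence applications included 0.25% v/v non-ionic surfactant and reached plants sown 8–21 days before. Pre-emergence applications were incorporated by surface watering. Efficacy or crop damage was rated on a 0–100 scale after 14 days.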"}, "[16]": {"tested_on": "redroot pigweed (Amaranthus retroflexus, AMARE)", "assay": "Post-emerge test, greenhouse herbicide activity screening", "settings": "post-emerge, 14 days after application, rating scale 0-100", "summary_of_the_method": "as §3"}, "[17]": {"tested_on": "lambsquarters (Chenopodium album, CHEAL)", "assay": "Post-emerge test, greenhouse herbicide activity screening", "settings": "post-emerge, 14 days after application, rating scale 0-100", "summary_of_the_method": "as §3"}, "[18]": {"tested_on": "large crabgrass (Digitaria sanguinalis, DIGSA)", "assay": "Post-emerge test, greenhouse herbicide activity screening", "settings": "post-emerge, 14 days after application, rating scale 0-100", "summary_of_the_method": "as §3"}, "[19]": {"tested_on": "green foxtail (Setaria viridis, SETVI)", "assay": "Post-emerge test, greenhouse herbicide activity screening", "settings": "post-emerge, 14 days after application, rating scale 0-100", "summary_of_the_method": "as §3"}, "[20]": {"tested_on": "barnyardgrass (Echinochloa crus-galli, ECHCG)", "assay": "Post-emerge test, greenhouse herbicide activity screening", "settings": "post-emerge, 14 days after application, rating scale 0-100", "summary_of_the_method": "as §3"}, "[21]": {"tested_on": "johnsongrass (Sorghum halepense, SORHA)", "assay": "Post-emerge test, greenhouse herbicide activity screening", "settings": "post-emerge, 14 days after application, rating scale 0-100", "summary_of_the_method": "as §3"}, "[22]": {"tested_on": "common ragweed (Ambrosia artemisizfolia L., AMBEL)", "assay": "Post-emerge test, greenhouse herbicide activity screening", "settings": "post-emerge, 14 days after application, rating scale 0-100", "summary_of_the_method": "as §3"}, "[23]": {"tested_on": "sicklepod (Cassia obtusifolia, CASOB)", "assay": "Post-emerge test, greenhouse herbicide activity screening", "settings": "post-emerge, 14 days after application, rating scale 0-100", "summary_of_the_method": "as §3"}, "[24]": {"tested_on": "ivyleaf morningglory (Ipomoea hederacea, IPOHE)", "assay": "Post-emerge test, greenhouse herbicide activity screening", "settings": "post-emerge, 14 days after application, rating scale 0-100", "summary_of_the_method": "as §3"}}, "data": [{"smiles": "COc1c(Cl)cc(F)c(-n2c(=O)cc(C(F)(F)F)n(C)c2=O)c1NC(=O)c1ccc(Cl)cc1", "note": "[2-56]", "values": [{"measurement": "Pre-emerge phytotoxicity rating (0-100), crop damage, RICE", "setting": "[1]; 63 g ai/ha", "result": 30}, {"measurement": "Pre-emerge phytotoxicity rating (0-100), crop damage, RICE", "setting": "[1]; 250 g ai/ha", "result": 95}, {"measurement": "Pre-emerge phytotoxicity rating (0-100), crop damage, CORN", "setting": "[2]; 63 g ai/ha", "result": 80}, {"measurement": "Pre-emerge phytotoxicity rating (0-100), crop damage, CORN", "setting": "[2]; 250 g ai/ha", "result": 95}, {"measurement": "Pre-emerge Herbicidal Activity, phytotoxicity rating (0-100), AMARE", "setting": "[3]; 63 g ai/ha", "result": 100}, {"measurement": "Pre-emerge Herbicidal Activity, phytotoxicity rating (0-100), AMARE", "setting": "[3]; 250 g ai/ha", "result": 100}, {"measurement": "Pre-emerge Herbicidal Activity, phytotoxicity rating (0-100), ABUTH", "setting": "[4]; 63 g ai/ha", "result": 100}, {"measurement": "Pre-emerge Herbicidal Activity, phytotoxicity rating (0-100), ABUTH", "setting": "[4]; 250 g ai/ha", "result": 100}, {"measurement": "Pre-emerge Herbicidal Activity, phytotoxicity rating (0-100), CHEAL", "setting": "[5]; 63 g ai/ha", "result": 100}, {"measurement": "Pre-emerge Herbicidal Activity, phytotoxicity rating (0-100), CHEAL", "setting": "[5]; 250 g ai/ha", "result": 100}, {"measurement": "Pre-emerge Herbicidal Activity, phytotoxicity rating (0-100), DIGSA", "setting": "[6]; 63 g ai/ha", "result": 100}, {"measurement": "Pre-emerge Herbicidal Activity, phytotoxicity rating (0-100), DIGSA", "setting": "[6]; 250 g ai/ha", "result": 100}, {"measurement": "Pre-emerge Herbicidal Activity, phytotoxicity rating (0-100), SETVI", "setting": "[7]; 63 g ai/ha", "result": 100}, {"measurement": "Pre-emerge Herbicidal Activity, phytotoxicity rating (0-100), SETVI", "setting": "[7]; 250 g ai/ha", "result": 100}, {"measurement": "Pre-emerge Herbicidal Activity, phytotoxicity rating (0-100), ECHCG", "setting": "[8]; 63 g ai/ha", "result": 90}, {"measurement": "Pre-emerge Herbicidal Activity, phytotoxicity rating (0-100), ECHCG", "setting": "[8]; 250 g ai/ha", "result": 100}, {"measurement": "Pre-emerge Herbicidal Activity, phytotoxicity rating (0-100), SORHA", "setting": "[9]; 63 g ai/ha", "result": 99}, {"measurement": "Pre-emerge Herbicidal Activity, phytotoxicity rating (0-100), SORHA", "setting": "[9]; 250 g ai/ha", "result": 100}, {"measurement": "Pre-emerge Herbicidal Activity, phytotoxicity rating (0-100), AMBEL", "setting": "[10]; 63 g ai/ha", "result": 100}, {"measurement": "Pre-emerge Herbicidal Activity, phytotoxicity rating (0-100), AMBEL", "setting": "[10]; 250 g ai/ha", "result": 100}, {"measurement": "Pre-emerge Herbicidal Activity, phytotoxicity rating (0-100), CASOB", "setting": "[11]; 63 g ai/ha", "result": 100}, {"measurement": "Pre-emerge Herbicidal Activity, phytotoxicity rating (0-100), CASOB", "setting": "[11]; 250 g ai/ha", "result": 100}, {"measurement": "Pre-emerge Herbicidal Activity, phytotoxicity rating (0-100), IPOHE", "setting": "[12]; 63 g ai/ha", "result": 100}, {"measurement": "Pre-emerge Herbicidal Activity, phytotoxicity rating (0-100), IPOHE", "setting": "[12]; 250 g ai/ha", "result": 100}, {"measurement": "phytotoxicity rating RICE", "setting": "[13]; 63 g ai/ha", "result": 45}, {"measurement": "phytotoxicity rating RICE", "setting": "[13]; 250 g ai/ha", "result": 90}, {"measurement": "phytotoxicity rating CORN", "setting": "[14]; 63 g ai/ha", "result": 30}, {"measurement": "phytotoxicity rating CORN", "setting": "[14]; 250 g ai/ha", "result": 80}, {"measurement": "phytotoxicity rating ABUTH", "setting": "[15]; 63 g ai/ha", "result": 100}, {"measurement": "phytotoxicity rating ABUTH", "setting": "[15]; 250 g ai/ha", "result": 100}, {"measurement": "phytotoxicity rating AMARE", "setting": "[16]; 63 g ai/ha", "result": 100}, {"measurement": "phytotoxicity rating AMARE", "setting": "[16]; 250 g ai/ha", "result": 100}, {"measurement": "phytotoxicity rating CHEAL", "setting": "[17]; 63 g ai/ha", "result": 100}, {"measurement": "phytotoxicity rating CHEAL", "setting": "[17]; 250 g ai/ha", "result": 100}, {"measurement": "phytotoxicity rating DIGSA", "setting": "[18]; 63 g ai/ha", "result": 0}, {"measurement": "phytotoxicity rating DIGSA", "setting": "[18]; 250 g ai/ha", "result": 30}, {"measurement": "phytotoxicity rating SETVI", "setting": "[19]; 63 g ai/ha", "result": 80}, {"measurement": "phytotoxicity rating SETVI", "setting": "[19]; 250 g ai/ha", "result": 60}, {"measurement": "phytotoxicity rating ECHCG", "setting": "[20]; 63 g ai/ha", "result": 0}, {"measurement": "phytotoxicity rating ECHCG", "setting": "[20]; 250 g ai/ha", "result": 50}, {"measurement": "phytotoxicity rating SORHA", "setting": "[21]; 63 g ai/ha", "result": 0}, {"measurement": "phytotoxicity rating SORHA", "setting": "[21]; 250 g ai/ha", "result": 60}, {"measurement": "phytotoxicity rating AMBEL", "setting": "[22]; 63 g ai/ha", "result": 70}, {"measurement": "phytotoxicity rating AMBEL", "setting": "[22]; 250 g ai/ha", "result": 100}, {"measurement": "phytotoxicity rating CASOB", "setting": "[23]; 63 g ai/ha", "result": 100}, {"measurement": "phytotoxicity rating CASOB", "setting": "[23]; 250 g ai/ha", "result": 100}, {"measurement": "phytotoxicity rating IPOHE", "setting": "[24]; 63 g ai/ha", "result": 100}, {"measurement": "phytotoxicity rating IPOHE", "setting": "[24]; 250 g ai/ha", "result": 100}]}]}
